The values below come from article PMC7806522, “Olfactory marker protein interacts with adenosine nucleotide derivatives” (Biochemistry and Biophysics Reports, 2021).

What all share (type): biochemical
For assay [1], the target named is T1, Olfactory marker protein (OMP) (Mus musculus, UniProt Q64288).
T1 construct: Rluc-OMP fusion (Rluc upstream of mouse OMP, NM_011010), from HEK293T lysate
T1 sequence (Q64288 2-163): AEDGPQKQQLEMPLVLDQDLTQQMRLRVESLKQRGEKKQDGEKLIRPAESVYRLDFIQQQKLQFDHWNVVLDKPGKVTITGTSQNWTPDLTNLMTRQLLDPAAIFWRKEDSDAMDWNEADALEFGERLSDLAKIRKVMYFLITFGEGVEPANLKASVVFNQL
Put plainly: BRET competition against […] 8NBD-cAMP (U-shaped, peak at […]). A general note: BRET reads energy transfer from a luciferase to a nearby fluorophore.

Assay [2] addresses T1, Olfactory marker protein (OMP). Put plainly: BRET competition against […] 8NBD-cAMP (U-shaped).
Assay [3] has the same target. Put plainly: direct BRET binding, Rluc-OMP to fluorescent TNP-ATP, Rluc-alone background subtracted.

Each structure is given as a SMILES string.

Take `Nc1ncnc2c1ncn2[C@@H]1O[C@H](COP(=O)(O)OP(=O)(O)O)[C@@H](O)[C@H]1O` [ADP]: the “concentration at peak BRET signal” value in assay [1] lay in the range of 1 to 3 µM.
In the case of `Nc1ncnc2c1ncn2[C@@H]1O[C@H](COP(=O)(O)OP(=O)(O)OP(=O)(O)O)[C@@H](O)[C@H]1O` [ATP], in assay [2], the EC50 (as a rule, the midpoint of the concentration-response curve) worked out at 1 ± 0.15 µM.
On to `Nc1ncnc2c1ncn2[C@@H]1O[C@H](COP(=O)(O)OP(=O)(O)OP(=O)(O)O)[C@H]2OC3(O[C@H]21)C([N+](=O)[O-])=CC(=[N+]([O-])[O-])C=C3[N+](=O)[O-]` (stereo partly drawn) [TNP-ATP], for which a half-maximal response in assay [3] (EC50) required 13 ± 1.5 µM.
